Columns and labels:
[1] = in vitro; settings: human, MT4 cells
Description: Selectivity index, ratio of CC50 for cytotoxicity against human MT4 cells to EC50 for antiviral activity against wild type HIV-1 IIIB infected in human MT4 cells

[2] = test system: Human immunodeficiency virus 1; assay: microbe, parasite or virus in culture; settings: Human immunodeficiency virus 1, IIIB, MT4
Description: Antiviral activity against wild type HIV-1 IIIB infected in human MT4 cells assessed as protection against virus-induced cytopathic effect by MTT assay

[3] = molecular target: Human immunodeficiency virus type 1 reverse transcriptase (Human immunodeficiency virus 1, UniProt Q72547)
Description: Inhibition of HIV-1 reverse transcriptase using oligo(dT)16 as primer measured after 40 mins by picogreen-dye based spectrofluorometric analysis

[4] = Cytotoxicity against human MT4 cells assessed as reduction in cell viability by MTT assay; assay type: toxicity, cell-based
[5] = test system: Human immunodeficiency virus 1; assay: Antiviral activity against HIV-1 IIIB harboring reverse transcriptase […] mutant infected in human MT4 cells by MTT assay; assay type: functional, organism-based; settings: Human immunodeficiency virus 1, IIIB
[6] = test system: Human immunodeficiency virus 1; assay: Antiviral activity against HIV-1 IIIB harboring reverse transcriptase K103N mutant infected in human MT4 cells by MTT assay; assay type: functional, organism-based; settings: Human immunodeficiency virus 1, IIIB
[7] = test system: Human immunodeficiency virus 1; assay: Antiviral activity against HIV-1 IIIB harboring reverse transcriptase Y181C mutant infected in human MT4 cells by MTT assay; assay type: functional, organism-based; settings: Human immunodeficiency virus 1, IIIB
[8] = test system: Human immunodeficiency virus 1; assay: microbe, parasite or virus in culture; settings: Human immunodeficiency virus 1, IIIB, MT4; remark: listed apart in the source
Description: Antiviral activity against HIV-1 IIIB harboring reverse transcriptase Y188L mutant infected in human MT4 cells by MTT assay

[9] = test system: Human immunodeficiency virus 1; assay: Antiviral activity against HIV-1 IIIB harboring reverse transcriptase E138K mutant infected in human MT4 cells by MTT assay; assay type: functional, organism-based; settings: Human immunodeficiency virus 1, IIIB
[10] = in vitro; settings: human
[11] = Metabolic stability in human liver assessed as intrinsic clearance in microsomes at 1 uM measured up to 45 mins in presence of NADPH by LC-MS/MS analysis; assay type: ADME; settings: read-out: CLH
[12] = in vitro; settings: human; remark: listed apart in the source

Structure (SMILES) | selectivity ratio [1] | EC50 [2] | IC50 [3] | CC50 [4] | EC50 [5] | EC50 [6] | EC50 [7] | EC50 [8] | EC50 [9] | CLint scaled at 0.75 h, 1 µM ([10]; liver) | microsomal CLint at 1 µM [11] | half-life at 0.75 h, 1 µM ([12]; liver microsomes) | CLint scaled at 0.75 h, 1 µM [10] | half-life at 0.75 h, 1 µM ([12]; microsomes)
Cc1cc(-c2ccc(C#N)c(F)c2)ccc1Oc1cc(N)nc(Nc2ccc(C#N)cc2)n1 | 1090 | 6 nM | 39 nM | 6.6 µM |  |  |  |  |  |  |  |  |  | 
Cc1cc(-c2ccccc2)ccc1Oc1cc(N)nc(Nc2ccc(C#N)cc2)n1 | 1050 | 19 nM | 39 nM | 20 µM |  |  |  |  |  |  |  |  |  | 
Cc1cc(-c2ccc(C#N)cc2)ccc1Oc1cc(N)nc(Nc2ccc(C#N)cc2)n1 | 5250 | 2 nM | 29 nM | 10.4 µM | 38 nM | 3 nM | 32 nM | 1110 nM | 9 nM |  |  |  |  | 
Cc1cc(-c2ccc(C#N)c(F)c2)cc(C)c1Oc1cc(N)nc(Nc2ccc(C#N)cc2)n1 | 937 | 5.33 nM | 50 nM | 5 µM |  |  |  |  |  |  |  |  |  | 
Cc1cc(-c2ccc(F)cc2)cc(C)c1Oc1cc(N)nc(Nc2ccc(C#N)cc2)n1 | 1700 | 13.6 nM | 61 nM | 23.1 µM |  |  |  |  |  |  |  |  |  | 
Cc1cc(-c2cccc(C#N)c2)ccc1Oc1cc(N)nc(Nc2ccc(C#N)cc2)n1 | 4940 | 5.5 nM | 41 nM | 27.4 µM | 287 nM | 105 nM | 450 nM | 6550 nM | 36 nM |  |  |  |  | 
Cc1ccc(-c2cc(C)c(Oc3cc(N)nc(Nc4ccc(C#N)cc4)n3)c(C)c2)cc1 | 249 | 40.1 nM | 69 nM | 10 µM |  |  |  |  |  |  |  |  |  | 
Cc1cc(-c2ccccc2Cl)cc(C)c1Oc1cc(N)nc(Nc2ccc(C#N)cc2)n1 | 882 | 28.4 nM | 100 nM | 25.1 µM |  |  |  |  |  |  |  |  |  | 
Cc1cc(-c2cccc(F)c2)ccc1Oc1cc(N)nc(Nc2ccc(C#N)cc2)n1 | 187 | 60.6 nM | 101 nM | 11.3 µM |  |  |  |  |  |  |  |  |  | 
COc1cccc(-c2cc(C)c(Oc3cc(N)nc(Nc4ccc(C#N)cc4)n3)c(C)c2)c1 | 1980 | 9.7 nM | 73 nM | 19.3 µM |  |  |  |  |  |  |  |  |  | 
Cc1cc(Oc2cc(N)nc(Nc3ccc(C#N)cc3)n2)ccc1-c1ccc(C#N)cc1 | 15100 | 2.3 nM | 26 nM | 34.3 µM | 71 nM | 10 nM | 33 nM | 1420 nM | 12 nM | 1.08 mL/min/kg | 36 µL/min/mg | 38.5 min |  | 
Cc1cc(-c2ccccc2C#N)ccc1Oc1cc(N)nc(Nc2ccc(C#N)cc2)n1 | 2900 | 9.84 nM | 50 nM | 28.6 µM |  |  |  |  |  |  |  |  |  | 
Cc1ccccc1-c1cc(C)c(Oc2cc(N)nc(Nc3ccc(C#N)cc3)n2)c(C)c1 | 726 | 35.2 nM | 121 nM | 25.6 µM |  |  |  |  |  |  |  |  |  | 
Cc1cc(-c2cccc(Cl)c2)cc(C)c1Oc1cc(N)nc(Nc2ccc(C#N)cc2)n1 | 588 | 38 nM | 85 nM | 22.3 µM |  |  |  |  |  |  |  |  |  | 
Cc1cc(-c2ccccc2F)ccc1Oc1cc(N)nc(Nc2ccc(C#N)cc2)n1 | 2560 | 11.5 nM | 45 nM | 29.5 µM |  |  |  |  |  |  |  |  |  | 
Cc1cc(-c2ccc(C#N)cc2)cc(C)c1Oc1cc(N)nc(Nc2ccc(C#N)cc2)n1 | 3870 | 4.7 nM | 37 nM | 18.1 µM | 8 nM | 4 nM | 16 nM | 82 nM | 12 nM |  |  |  |  | 
Cc1cc(-c2cccc(F)c2)cc(C)c1Oc1cc(N)nc(Nc2ccc(C#N)cc2)n1 | 1570 | 15.8 nM | 52 nM | 24.7 µM |  |  |  |  |  |  |  |  |  | 

Structure (SMILES) | selectivity ratio [1] | EC50 [2] | IC50 [3] | CC50 [4] | EC50 [5] | EC50 [6] | EC50 [7] | EC50 [8] | EC50 [9] | CLint scaled at 0.75 h, 1 µM ([10]; liver) | microsomal CLint at 1 µM [11] | half-life at 0.75 h, 1 µM ([12]; liver microsomes) | CLint scaled at 0.75 h, 1 µM [10] | half-life at 0.75 h, 1 µM ([12]; microsomes)
COc1cc(Oc2cc(N)nc(Nc3ccc(C#N)cc3)n2)ccc1-c1ccc(C#N)cc1 | 5590 | 2.3 nM | 30 nM | 12.9 µM | 36 nM | 12 nM | 28 nM | 1360 nM | 13 nM |  |  |  |  | 
Cc1cc(-c2ccc(C#N)c(C#N)c2)cc(C)c1Oc1cc(N)nc(Nc2ccc(C#N)cc2)n1 | 3090 | 5.69 nM | 40 nM | 17.6 µM |  |  |  |  |  |  |  |  |  | 
Cc1cc(C#N)cc(C)c1Oc1nc(Nc2ccc(C#N)cc2)nc(N)c1Br [ETRAVIRINE] |  | 2.9 nM |  | > 4.6 µM | 6 nM | 2 nM |  | 18 nM | 6 nM |  |  |  |  | 
COc1ccccc1-c1cc(C)c(Oc2cc(N)nc(Nc3ccc(C#N)cc3)n2)c(C)c1 | 508 | 42.8 nM | 122 nM | 21.8 µM |  |  |  |  |  |  |  |  |  | 
O=C(O)Cc1ccccc1Nc1c(Cl)cccc1Cl [DICLOFENAC] |  |  |  |  |  |  |  |  |  |  | 150 µL/min/mg |  | 4.49 mL/min/kg | 9.25 min
COc1cc2cc(C#N)ccc2c(OC)c1Oc1cc(N)nc(Nc2ccc(C#N)cc2)n1 | 3500 | 5 nM |  | 19 µM | 38 nM |  |  |  |  |  |  |  |  | 
O=C1Nc2ccc(Cl)cc2[C@@](C#CC2CC2)(C(F)(F)F)O1 [EFAVIRENZ] |  |  |  | > 6.34 µM | 30 nM |  | 7 nM |  |  |  |  |  |  | 
Cc1ccnc2c1NC(=O)c1cccnc1N2C1CC1 [NEVIRAPINE] |  |  |  | > 15 µM | 1360 nM | 5840 nM | 11500 nM | > 15000 nM |  |  |  |  |  | 
Cc1cc(-c2ccccc2C#N)cc(C)c1Oc1cc(N)nc(Nc2ccc(C#N)cc2)n1 | 3570 | 7.12 nM | 40 nM | 25.4 µM |  |  |  |  |  |  |  |  |  | 
Cc1cc(-c2ccc(Cl)cc2)cc(C)c1Oc1cc(N)nc(Nc2ccc(C#N)cc2)n1 | 628 | 34.2 nM | 102 nM | 21.5 µM |  |  |  |  |  |  |  |  |  | 
Cc1cccc(-c2cc(C)c(Oc3cc(N)nc(Nc4ccc(C#N)cc4)n3)c(C)c2)c1 | 404 | 68.3 nM | 152 nM | 27.6 µM |  |  |  |  |  |  |  |  |  | 
COc1ccc(-c2cc(C)c(Oc3cc(N)nc(Nc4ccc(C#N)cc4)n3)c(C)c2)cc1 | 1390 | 7.7 nM | 54 nM | 10.7 µM |  |  |  |  |  |  |  |  |  | 
Cc1cc(-c2ccccc2)cc(C)c1Oc1cc(N)nc(Nc2ccc(C#N)cc2)n1 | 2640 | 9.7 nM | 45 nM | 25.6 µM |  |  |  |  |  |  |  |  |  | 
Cc1cc(-c2ccc(C#N)c(C#N)c2)ccc1Oc1cc(N)nc(Nc2ccc(C#N)cc2)n1 | 7040 | 10.9 nM | 90 nM | 76.7 µM |  |  |  |  |  |  |  |  |  | 
Cc1cc(-c2ccccc2F)cc(C)c1Oc1cc(N)nc(Nc2ccc(C#N)cc2)n1 | 3060 | 9.6 nM | 46 nM | 29.3 µM |  |  |  |  |  |  |  |  |  | 
Cc1cc(-c2ccc(F)cc2)ccc1Oc1cc(N)nc(Nc2ccc(C#N)cc2)n1 | 2120 | 9.5 nM | 50 nM | 20.1 µM |  |  |  |  |  |  |  |  |  | 
Cc1cc(-c2cccc(C#N)c2)cc(C)c1Oc1cc(N)nc(Nc2ccc(C#N)cc2)n1 | 2890 | 7 nM | 42 nM | 20.2 µM | 88 nM | 8 nM | 73 nM | 878 nM | 46 nM |  |  |  |  | 

From ChEMBL document CHEMBL5131537 (J Med Chem, 2022)
